Drawing on patent publication US20110152243A1, “NOVEL THIENOPYRROLE COMPOUNDS” (ABBOTT LABORATORIES, priority 2009, published 2011), this text covers IC50 for 27 molecules.

In this assay the target is PKCθ (Homo sapiens, UniProt Q04759). The experiment in a line: PKCθ enzyme data at 1 mM ATP. The class given is biochemical.
PKCθ, sequence (Q04759 whole entry): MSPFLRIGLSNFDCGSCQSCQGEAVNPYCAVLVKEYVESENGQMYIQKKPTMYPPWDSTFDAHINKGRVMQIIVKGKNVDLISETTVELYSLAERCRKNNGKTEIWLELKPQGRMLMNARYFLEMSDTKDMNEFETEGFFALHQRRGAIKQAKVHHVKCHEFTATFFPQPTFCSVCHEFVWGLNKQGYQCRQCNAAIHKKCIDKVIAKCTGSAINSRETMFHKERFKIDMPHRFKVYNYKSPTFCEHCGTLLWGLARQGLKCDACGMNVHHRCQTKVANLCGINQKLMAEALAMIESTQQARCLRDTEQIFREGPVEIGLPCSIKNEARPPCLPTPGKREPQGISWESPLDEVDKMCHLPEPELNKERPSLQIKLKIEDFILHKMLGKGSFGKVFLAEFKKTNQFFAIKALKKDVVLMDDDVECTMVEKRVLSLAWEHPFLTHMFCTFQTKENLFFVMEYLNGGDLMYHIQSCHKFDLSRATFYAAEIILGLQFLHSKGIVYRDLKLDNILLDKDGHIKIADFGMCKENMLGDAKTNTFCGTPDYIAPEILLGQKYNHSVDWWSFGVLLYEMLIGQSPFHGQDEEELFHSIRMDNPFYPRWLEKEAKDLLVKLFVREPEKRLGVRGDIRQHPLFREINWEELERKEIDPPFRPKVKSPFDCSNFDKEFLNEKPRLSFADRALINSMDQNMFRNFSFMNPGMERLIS
Turning to `CN1CCN(c2cc(C3=C(c4c[nH]c5ccsc45)C(=O)NC3=O)c3ccccc3n2)CC1` [F.3.3], the IC50 (in general, the point on the concentration scale where inhibition reaches its midpoint) is less than 100 nM. The figure for `O=C1NC(=O)C(c2c[nH]c3sccc23)=C1c1nc(N2CCn3cncc3C2)nc2ccccc12` [E.1.46] is less than 100 nM. The figure for `CNCC1CCN(c2nc(C3=C(c4c[nH]c5sccc45)C(=O)NC3=O)c3ccccc3n2)C1` (stereo not drawn) [G.1.14] is 500 to 1000 nM; for `Cc1ccc2nc(N3CCN(C)CC3)nc(C3=C(c4c[nH]c5sccc45)C(=O)NC3=O)c2c1` [F.4.31] it is less than 100 nM; for `O=C1NC(=O)C(c2c[nH]c3ccsc23)=C1c1nc(N2CCC(N3CCOCC3)CC2)nc2ccccc12` [E.2.5] it is 100 to 500 nM. The figure for `CN1CCN(c2nc(C3=C(c4c[nH]c5sccc45)C(=O)NC3=O)c3c(F)cccc3n2)CC1` [F.4.1, 3-(5-Fluoro-2-(4-methylpiperazin-1-yl)quinazolin-4-yl)-4-(6H-thieno[2,3-b]pyrrol-4-yl)-1H-pyrrole-2,5-dione] is less than 100 nM. Regarding `CN1CCN(c2nc(C3=C(c4c[nH]c5sccc45)C(=O)NC3=O)c3cc(F)ccc3n2)CC1` [F.4.15], the 50% inhibitory concentration (IC50) was less than 100 nM. The figure for `CN(C)CCCn1nc(C2=C(c3c[nH]c4sccc34)C(=O)NC2=O)c2ccccc21` [F.4.29] is 100 to 500 nM; for `CN1CCN(c2nc(C3=C(c4c[nH]c5sccc45)C(=O)NC3=O)c3ccccc3n2)CC1CO` (stereo not drawn) [E.1.45] it is less than 100 nM.

`CC(C)(O)CN1CCN(c2nc(C3=C(c4c[nH]c5sccc45)C(=O)NC3=O)c3ccccc3n2)CC1` [E.1.55] had an IC50 of less than 100 nM. The figure for `CC(O)c1ncc2n1CCN(c1nc(C3=C(c4c[nH]c5sccc45)C(=O)NC3=O)c3ccccc3n1)C2` (stereo not drawn) [E.1.52] is less than 100 nM; for `O=C1NC(=O)C(c2c[nH]c3sccc23)=C1c1nc(N2C[C@@H]3C[C@H]2CN3)nc2ccccc12` [G.1.2] it is 100 to 500 nM. The same measure for `NC1(C(=O)NC2CC2)CCN(c2nc(C3=C(c4c[nH]c5sccc45)C(=O)NC3=O)c3ccccc3n2)CC1` [E.1.58]: less than 100 nM; for `O=C1NC(=O)C(c2c[nH]c3sccc23)=C1c1nc(N2CCN3CCC[C@H]3C2)nc2ccccc12` [E.1.44]: less than 100 nM. The figure for `O=C1NC(=O)C(c2nn(CC3CCNCC3)c3ccccc23)=C1c1c[nH]c2sccc12` [G.1.12] is less than 100 nM. The molecule `O=C1NC(=O)C(c2c[nH]c3sccc23)=C1c1nc(N2CCNCC2)nc2sccc12` [G.1.18] returned an IC50 of less than 100 nM.

Turning to `O=C1NC(=O)C(c2c[nH]c3sccc23)=C1c1nc(N2CCN3CCC[C@H]3C2)nc2sccc12` [E.3.1], the IC50 was less than 100 nM.

`CC1(N)CCN(c2nc(C3=C(c4c[nH]c5sccc45)C(=O)NC3=O)c3ccccc3n2)CC1` [G.1.10] returned a half-inhibitory concentration (IC50) of less than 100 nM. `O=C1NC(=O)C(c2c[nH]c3sccc23)=C1c1nc(N2CCC3(CC2)CNC3)nc2ccccc12` [G.1.13] returned an IC50 of 100 to 500 nM.

Regarding `O=C1NC(=O)C(c2c[nH]c3sccc23)=C1c1nc(N2CCc3nc[nH]c3C2)nc2ccccc12` [E.1.27], the IC50 is less than 100 nM. The figure for `CN1CCC(C)(Cn2nc(C3=C(c4c[nH]c5sccc45)C(=O)NC3=O)c3ccccc32)CC1` [F.4.23] is 100 to 500 nM; for `Cc1cccc2c(C3=C(c4c[nH]c5sccc45)C(=O)NC3=O)nc(N3CCN(C)CC3)nc12` [F.4.32] it is 500 to 1000 nM; for `O=C1NC(=O)C(c2c[nH]c3ccsc23)=C1c1nc(NC2CCNCC2)nc2ccccc12` [G.1.8] it is 100 to 500 nM. `O=C1NC(=O)C(c2c[nH]c3sccc23)=C1c1nc(N2CCN3CCC[C@@H]3C2)nc2ccccc12` [E.1.1, (R)-3-(2-(Hexahydropyrrolo[1,2-a]pyrazin-2(1H)-yl)quinazolin-4-yl)-4-(6H-thieno[2,3-b]pyrrol-4-yl)-1H-pyrrole-2,5-dione] showed an IC50 of less than 100 nM. The same measure for `NC1(CO)CCN(c2nc(C3=C(c4c[nH]c5sccc45)C(=O)NC3=O)c3ccccc3n2)CC1` [E.1.57]: less than 100 nM; for `O=C1NC(=O)C(c2c[nH]c3sccc23)=C1c1nc(N2CCC(CN3CCOCC3)CC2)nc2ccccc12` [E.1.16]: 100 to 500 nM; for `CN1CC[C@H](Cn2nc(C3=C(c4c[nH]c5sccc45)C(=O)NC3=O)c3ccccc32)[C@H](F)C1` (relative stereo) [F.4.4]: less than 100 nM.
